Laboratory results taken from ChEMBL document CHEMBL1133689, “7-Chloro-4,5-dihydro-8-(1,2,4-triazol-4-yl)-4-oxo-1,2,4-triazolo[1, 5-a]quinoxaline-2-carboxylates as novel highly selective AMPA receptor antagonists” (J Med Chem, 2000).

Legend:
[1] = Compound was evaluated for inhibition of binding of [3H]glycine to specific binding at glycine receptor in rat cortical membrane at 100 uM; format: cell membranes
[2] = Compound was evaluated for inhibition of binding of [3H]glycine to specific binding at glycine receptor in rat cortical membrane; format: cell membranes
[3] = biological target: Glutamate receptor ionotropic, kainate; assay: Compound was evaluated for inhibition of binding of [3H]KA to specific binding at Ka receptor in rat cortical membrane; format: cell membranes
[4] = biological target: Glutamate receptor ionotropic, AMPA (Rattus norvegicus, UniProt P19490+P19491+P19492+P19493); assay: Compound was evaluated for inhibition of binding of [3H]AMPA to specific binding at Ionotropic glutamate receptor AMPA in rat cortical membrane; format: cell membranes
Mus musculus [5] = species: Mus musculus; assay: Ability to inhibit depolarizations induced by AMPA in mouse cortical wedge preparations; format: functional, organism-based
Mus musculus [6] = species: Mus musculus; assay: Ability to inhibit depolarizations induced by NMDA in mouse cortical wedge preparations.; format: functional, organism-based
[7] = biological target: Glutamate receptor ionotropic, kainate (Rattus norvegicus) (UniProt P22756+Q01812+P42260+P42264+Q63273); assay: Compound was evaluated for inhibition of binding of [3H]KA to specific binding at Ka receptor in rat cortical membrane at 100 uM; format: cell membranes

## O=C(O)c1nc2c(O)nc3cc(Cl)c(-n4ccnc4)cc3n2n1
[1]
  inhibition: 45%

## O=C(O)c1nc2c(O)nc3cc(Cl)c(-n4cnnc4)cc3n2n1 [TQX-173]
[2]
  Ki: 33.5 µM
[3]
  IC50: 11.6 µM
[4]
  Ki: 0.14 µM
Mus musculus [5]
  IC50: 2.3 µM
Mus musculus [6]
  IC50: 46 µM

## CCOC(=O)c1nc2c(O)nc3cc(Cl)c(-n4ccnc4)cc3n2n1
[1]
  inhibition: 39%
[7]
  inhibition: 24%
[4]
  Ki: 2.3 µM
Mus musculus [5]
  IC50: 22 µM
Mus musculus [6]
  IC50: > 100 µM

## O=C(O)c1cc(O)c2c(Cl)cc(Cl)cc2n1
[2]
  Ki: 0.09 µM
[7]
  inhibition: 8%
Mus musculus [5]
  IC50: 52 µM
Mus musculus [6]
  IC50: 4.7 µM

## O=C(O)c1nc2c(O)nc3cc(Cl)c([N+](=O)[O-])cc3n2n1
[2]
  Ki: 2.2 µM
[7]
  inhibition: 41%
Mus musculus [5]
  IC50: 75 µM
Mus musculus [6]
  IC50: 75 µM

## CCOC(=O)c1nc2c(O)nc3cc(Cl)c(-n4cnnc4)cc3n2n1
[1]
  inhibition: 15%
[7]
  inhibition: 42%
[4]
  Ki: 0.7 µM
Mus musculus [5]
  IC50: 15 µM
Mus musculus [6]
  IC50: 100 µM

## O=C(O)c1nc2c(=O)[nH]c3cc(Cl)c(-n4ccnc4)cc3n2n1
[3]
  IC50: 16.8 µM
[4]
  Ki: 0.98 µM

## NS(=O)(=O)c1cccc2c1c([N+](=O)[O-])cc1nc(O)c(O)nc12 [NBQX]
[1]
  inhibition: 3%
Mus musculus [5]
  IC50: 0.2 µM
